From US20060041013A1, “Alanosine formulations and methods of use” (priority 2004, published 2006)
“And” between values parts separate entries of the source, which are not always exact repeats. Equal values may be shown once.

How the values were obtained:
[1] = Chirality analysis: conversion of L-alanosine to D-alanosine (chiral HPLC); assay type: physicochemical
Description: The following HPLC procedure was used to separate the L- and D-enantiomers of alanosine. The HPLC system (Agilent 1100) employed a 4.6 mm×150 mm column (Phenomenex) containing 5 μm particles (Chirex 3126, (D)-penicillamine) as the stationary phase. The system was equipped with both UV and polarimeter detectors. The UV detector was set to 254 nm to monitor products being eluted from the column, while the polarimeter detector was set to 670 nm. The eluent was 2 mM CuSO4/MeOH 70-30. The flow rate was 1.7 mL/min. at a pressure of 200 bar. For each run, a 100 μL sample containing 0.5 mg/mL in 2 mM CuSO4 was injected onto the column. […] To reverse the elution order, (L)-penicillamine could be used.

A-427 = experiment: Intracellular ATP levels (Cell-Titer Glow); assay type: cell-based; details: Homo sapiens, 72 h; A-427, NSCLC, MTAP Positive; 3 day treatment
Description: (§1) MTAP status was determined using immunoblot analyses and correlated with the ability of an MTA analog to rescue ATP levels in cell lines treated with SDX-102. ATP levels were measured using Cell-Titer Glow™ (Promega) after a 3 day treatment with titrated concentrations of either SDX-102 or pemetrexed.
(§2) ATP values measured using Cell-Titer Glow™ (Promega) after 3 days exposure to the MTA analog. Solid lines in FIG. 8 represent the effect of titrations of SDX-102 from 0.05 μM-20 μM (FIG. 8A) or pemetrexed from 0.01 μM-5 μM (FIG. 8B) on cellular ATP levels. The dotted lines represent the effect of a single concentration of SDX-102 (10 μM) or pemetrexed (2.5 μM) with a titration of an MTA analog from 0.1 μM-50 μM.

NCI-H226 [2] = experiment: Intracellular ATP levels (Cell-Titer Glow); assay type: cell-based; details: Homo sapiens, 72 h; NCI-H226, Mesothelioma, MTAP Positive; 3 day treatment
Description: as §1, §2

HS-766T = experiment: Intracellular ATP levels (Cell-Titer Glow); assay type: cell-based; details: Hs766T, 72 h; HS-766T, Pancreatic, MTAP Positive; 3 day treatment
Description: as §1, §2

[3] = 6 months, 20 mg/mL, pH 8.5
Description: Each solution was divided into 5 mL aliquots and placed in 6 mL vials sealed with Teflon-faced screw caps (VWR Scientific, catalogue No. 66011-880). Vials of each solution were placed at five different temperatures, −20° C., 5° C., 25° C., 40° C., and 60° C., and aliquots were analyzed at various time points to determine stability.

NCI-H226 [4] = experiment: Cell viability MTT assay (Example 3); assay type: cell-based; details: Homo sapiens, 72 h; NCI-H226, Mesothelioma, MTAP Positive; 3 days
BX-PC3 = experiment: Docetaxel, 5-FU, SDX-102 alone or combined, MTT/MTS cytotoxicity (Example 4); assay type: cell-based; details: Homo sapiens, BXPC-3; BX-PC3, Pancreatic, single agent, MTT 72 hours
H-Meso-1 = experiment: Mesothelioma xenograft model (H-Meso-1) in SCID mice; assay type: in vivo; details: thirty-one days following treatment; docetaxel 10 mg/kg intraperitoneally daily Mon-Fri, SDX-102 50 mg/kg osmotic pump; start 100 mm^3; control 1272
A549 = experiment: Docetaxel, 5-FU, SDX-102 alone or combined, MTT/MTS cytotoxicity (Example 4); assay type: cell-based; details: Homo sapiens; A549, NSCLC, single agent, MTT 72 hours
[5] = Cell viability MTT assay (Example 3); assay type: cell-based; details: 72 h; A-594, NSCLC, MTAP Negative; 3 days
NCI-H292 = experiment: Docetaxel, 5-FU, SDX-102 alone or combined, MTT/MTS cytotoxicity (Example 4); assay type: cell-based; details: Homo sapiens; NCI-H292, NSCLC, single agent, MTT 72 hours
[6] = cited from earlier work
[7] = t1 yr., pH 7.5, 25° C., listed as L
[8] = t1 yr., pH 8.5, 25° C., listed as L
[9] = t6 mo., pH 8.5, 25° C., listed as L

Which results are given for `NC(CN(O)N=O)C(=O)O` [L-alanosine, L(−)-2-amino-3-nitrosohydroxylaminopropionic acid]?
conversion to D-alanosine ([1]; after one year at 5° C., pH 7.5 or 8.5): no conversion to D-alanosine; conversion to D-alanosine at pH 8.5 compared to pH 7.5 ([1]; storage at 25° C.): 5-10 times; % Total Peak Area L ([1]; t0): 100%; % Total Peak Area L ([1]; t1 yr., pH 7.5, 5° C.): 100%; % Total Peak Area D [1, 7]: 0.99% and 0.78%; % Total Peak Area L [1, 7]: 99.01% and 99.22%; % Total Peak Area L ([1]; t1 yr., pH 8.5, 5° C.): 100%; % Total Peak Area D [1, 8]: 4.45% and 4.56%; % Total Peak Area L [1, 8]: 95.55% and 95.44%; % Total Peak Area L ([1]; t6 mo., pH 8.5, 5° C.): 100%; % Total Peak Area D [1, 9]: 2.03% and 2.04%; % Total Peak Area L [1, 9]: 97.97% and 97.96%; IC50 (A-427): 1500 nM; IC50 (NCI-H226 [2]): 400 nM; IC50 (HS-766T): 2000 nM; stability versus freshly reconstituted lyophilizate (HPLC) [3]: as stable after storage at 5 °C for six months as a composition prepared by freshly reconstituting lyophilized L-alanosine; IC50 (NCI-H226 [4]): 1500 nM; IC50 (BX-PC3): 3000 ± 1000 nM; mean tumor volume (H-Meso-1): 1035 mm^3; IC50 (A549): 300 ± 100 nM; IC50 [5]: 400 nM; IC50 (NCI-H292): 200 ± 60 nM; single bolus dose at which renal toxicity reported ([6]; human, in vivo): above 4 g/m^2 body weight; dose-limiting toxicity ([6]; phase II, adults with acute non-lymphoblastic leukemia, continuous infusion about 125 mg/m^2 for 5 days): mucositis
